Residues, ends and D or L forms follow the SMILES beside them.
What was measured:
[1] = molecular target: T1, Neuropeptide Y receptor type 4 (Homo sapiens, UniProt P50391); assay: Agonist activity at human Y4 receptor expressed in sf9 cells assessed as hydrolysis of [gamma-33P]GTP after 2 mins by scintillation counting analysis
[2] = molecular target: T2, Neuropeptide Y receptor type 2 (Homo sapiens, UniProt P49146); assay: Displacement of Cy5-pNPY from human Y2 receptor expressed in CHO cells after 90 to 120 mins by flow cytometry; assay type: cell-based
T2 sequence (P49146 whole entry): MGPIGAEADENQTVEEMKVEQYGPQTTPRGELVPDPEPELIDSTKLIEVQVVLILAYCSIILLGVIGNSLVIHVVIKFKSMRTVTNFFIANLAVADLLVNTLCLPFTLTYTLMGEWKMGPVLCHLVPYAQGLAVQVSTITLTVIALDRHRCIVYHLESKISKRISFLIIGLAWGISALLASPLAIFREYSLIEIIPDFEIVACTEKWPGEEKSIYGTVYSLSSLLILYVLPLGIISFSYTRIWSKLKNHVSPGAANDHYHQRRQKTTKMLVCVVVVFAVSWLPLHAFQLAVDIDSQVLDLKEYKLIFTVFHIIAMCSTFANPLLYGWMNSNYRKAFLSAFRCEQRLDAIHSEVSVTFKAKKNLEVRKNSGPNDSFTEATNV

[3] = molecular target: T3, Neuropeptide Y receptor type 5 (Homo sapiens, UniProt Q15761); assay: Displacement of Cy5-pNPY from human Y5 receptor expressed in human HEC-1B cells after 90 to 120 mins by flow cytometry; assay type: cell-based
T3 sequence (Q15761 whole entry): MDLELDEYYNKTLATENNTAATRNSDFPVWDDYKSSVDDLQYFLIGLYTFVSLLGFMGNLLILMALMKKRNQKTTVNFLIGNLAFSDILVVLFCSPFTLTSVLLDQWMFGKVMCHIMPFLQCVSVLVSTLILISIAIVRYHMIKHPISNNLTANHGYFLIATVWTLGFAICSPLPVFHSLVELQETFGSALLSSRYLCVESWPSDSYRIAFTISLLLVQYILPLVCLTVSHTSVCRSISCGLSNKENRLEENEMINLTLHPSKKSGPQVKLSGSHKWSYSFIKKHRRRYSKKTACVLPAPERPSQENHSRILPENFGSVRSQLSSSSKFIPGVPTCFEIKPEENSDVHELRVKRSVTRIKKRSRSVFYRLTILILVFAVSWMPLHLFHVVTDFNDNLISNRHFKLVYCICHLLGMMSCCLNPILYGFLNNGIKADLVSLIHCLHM

[4] = molecular target: T4, Neuropeptide Y receptor type 1 (Homo sapiens, UniProt P25929); assay: Displacement of Cy5-pNPY from human Y1 receptor expressed in HEL cells after 90 to 120 mins by flow cytometry; assay type: cell-based
T4 sequence (P25929 whole entry): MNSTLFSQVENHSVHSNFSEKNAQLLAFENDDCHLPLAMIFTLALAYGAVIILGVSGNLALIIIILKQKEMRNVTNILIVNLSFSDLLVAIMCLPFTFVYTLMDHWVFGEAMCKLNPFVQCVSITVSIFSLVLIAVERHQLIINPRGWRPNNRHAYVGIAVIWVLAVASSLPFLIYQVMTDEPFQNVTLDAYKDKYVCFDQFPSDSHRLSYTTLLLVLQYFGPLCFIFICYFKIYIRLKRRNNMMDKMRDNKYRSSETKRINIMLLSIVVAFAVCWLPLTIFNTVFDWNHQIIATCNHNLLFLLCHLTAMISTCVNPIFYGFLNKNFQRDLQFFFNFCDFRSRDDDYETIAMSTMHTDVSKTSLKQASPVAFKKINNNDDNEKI

[5] = molecular target: T1, Neuropeptide Y receptor type 4; assay: Displacement of Cy5-[K4]hPP from human Y4 receptor expressed in CHO cells after 90 to 120 mins by flow cytometry; assay type: cell-based
[6] = molecular target: T1, Neuropeptide Y receptor type 4; assay: Partial agonist activity at human Y4 receptor expressed in sf9 cells assessed as hydrolysis of [gamma-33P]GTP after 2 mins by scintillation counting analysis relative to hPP

T1 sequence (P50391 whole entry): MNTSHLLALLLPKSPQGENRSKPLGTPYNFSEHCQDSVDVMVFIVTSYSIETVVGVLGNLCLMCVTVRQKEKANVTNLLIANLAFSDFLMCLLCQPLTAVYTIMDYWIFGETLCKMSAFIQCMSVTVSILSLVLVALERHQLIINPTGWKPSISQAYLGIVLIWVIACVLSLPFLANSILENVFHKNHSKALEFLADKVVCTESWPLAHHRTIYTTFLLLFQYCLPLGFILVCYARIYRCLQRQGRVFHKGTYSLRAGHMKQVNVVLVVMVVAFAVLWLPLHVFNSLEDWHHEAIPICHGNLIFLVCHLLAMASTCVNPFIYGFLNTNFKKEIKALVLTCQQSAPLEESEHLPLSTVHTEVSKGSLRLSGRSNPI

Molecule	EC50 [1] [nM]	Ki [2] [nM]	Ki [3] [nM]	Ki [4] [nM]	Ki [5] [nM]	Emax [6] [%]
CC[C@H](C)[C@H](NC(=O)[C@H](Cc1ccc(O)cc1)NC(=O)[C@H](Cc1cnc[nH]1)NC(=O)[C@H](CCCN=C(N)N)NC(C)=O)C(=O)N[C@@H](CC(N)=O)C(=O)N[C@@H](CC(C)C)C(=O)N[C@H](C(=O)N[C@@H]1C[C@H](C(=O)N[C@@H](CCCN=C(N)N)C(=O)N[C@@H]2C[C@H](C(=O)N[C@@H](CCCNC(=N)N)C(=O)N[C@@H](Cc3ccc(O)cc3)C(N)=O)C2(C)C)C1(C)C)[C@@H](C)CC (HELM PEPTIDE1{[ac].R.H.Y.I.N.L.I.[CC1(C)[C@@H](C(=O)[*:2])C[C@H]1N[*:1]].R.[CC1(C)[C@@H](C(=O)[*:2])C[C@H]1N[*:1]].R.Y.[am]}$$$$V2.0)	11	> 1000	> 1000	> 1000	0.53	
CC[C@H](C)[C@H](NC(=O)[C@H](Cc1ccc(O)cc1)NC(=O)[C@H](Cc1cnc[nH]1)NC(=O)[C@H](CCCNC(=N)N)NC(C)=O)C(=O)N[C@@H](CC(N)=O)C(=O)N[C@@H](CC(C)C)C(=O)N[C@H](C(=O)N[C@H](C(=O)N[C@@H](CCCNC(=N)N)C(=O)N[C@H]1CCC[C@H]1C(=O)N[C@@H](CCCNC(=N)N)C(=O)N[C@@H](Cc1ccc(O)cc1)C(N)=O)[C@@H](C)O)[C@@H](C)CC (HELM PEPTIDE1{[ac].R.H.Y.I.N.L.I.T.R.[O=C([C@@H]1CCC[C@@H]1N[*:1])[*:2]].R.Y.[am]}$$$$V2.0)						71
CC[C@H](C)[C@H](NC(=O)[C@H](Cc1ccc(O)cc1)NC(=O)[C@H](Cc1cnc[nH]1)NC(=O)[C@H](CCCNC(=N)N)NC(C)=O)C(=O)N[C@@H](CC(N)=O)C(=O)N[C@@H](CC(C)C)C(=O)N[C@H](C(=O)N[C@H](C(=O)N[C@@H](CCCNC(=N)N)C(=O)N[C@H]1C[C@@H](C(=O)N[C@@H](CCCNC(=N)N)C(=O)N[C@@H](Cc2ccc(O)cc2)C(N)=O)C1(C)C)[C@@H](C)O)[C@@H](C)CC (HELM PEPTIDE1{[ac].R.H.Y.I.N.L.I.T.R.[CC1(C)[C@@H](N[*:1])C[C@H]1C(=O)[*:2]].R.Y.[am]}$$$$V2.0)		> 1000	> 1000	> 1000	> 1000	
CC(=O)N[C@H](C(=O)N[C@@H](CCCNC(=N)N)C(=O)N[C@H]1CCC[C@H]1C(=O)N[C@@H](CCCNC(=N)N)C(=O)N[C@@H](Cc1ccc(O)cc1)C(N)=O)[C@@H](C)O (HELM PEPTIDE1{[ac].T.R.[O=C([C@@H]1CCC[C@@H]1N[*:1])[*:2]].R.Y.[am]}$$$$V2.0)	451	> 1000	> 1000	> 1000	509	
CC[C@H](C)[C@H](NC(=O)[C@H](Cc1ccc(O)cc1)NC(=O)[C@H](Cc1cnc[nH]1)NC(=O)[C@H](CCCN=C(N)N)NC(C)=O)C(=O)N[C@@H](CC(N)=O)C(=O)N[C@@H](CC(C)C)C(=O)N[C@H](C(=O)N[C@H]1CCC[C@H]1C(=O)N[C@@H](CCCN=C(N)N)C(=O)N[C@H]1CCC[C@H]1C(=O)N[C@@H](CCCN=C(N)N)C(=O)N[C@@H](Cc1ccc(O)cc1)C(N)=O)[C@@H](C)CC (HELM PEPTIDE1{[ac].R.H.Y.I.N.L.I.[O=C([C@@H]1CCC[C@@H]1N[*:1])[*:2]].R.[O=C([C@@H]1CCC[C@@H]1N[*:1])[*:2]].R.Y.[am]}$$$$V2.0)	48	> 1000	> 500	> 1000	37	
Ac-TRLRY-NH2	291	> 1000	> 1000	> 1000	490	
Ac-RHYINLITRLRY-NH2	100	> 1000	> 1000	> 1000	157	
Ac-YRLRY-NH2		> 1000	> 1000	> 1000		
CC[C@H](C)[C@H](NC(=O)[C@H](Cc1ccc(O)cc1)NC(=O)[C@H](CCCNC(=N)N)NC(=O)[C@H](CCCNC(=N)N)NC(C)=O)C(=O)N[C@@H](CC(N)=O)C(=O)N[C@@H](CC(N)=O)C(=O)N[C@@H](CC(C)C)C(=O)N[C@H](C(=O)N[C@@H](CCCNC(=N)N)C(=O)N[C@H]1CC[C@H]1C(=O)N[C@@H](CCCNC(=N)N)C(=O)N[C@@H](Cc1ccc(O)cc1)C(N)=O)[C@@H](C)O (HELM PEPTIDE1{[ac].R.R.Y.I.N.N.L.T.R.[O=C([C@@H]1CC[C@@H]1N[*:1])[*:2]].R.Y.[am]}$$$$V2.0)	76	> 1000	> 1000	> 1000	70	
CC[C@H](C)[C@H](NC(=O)[C@H](Cc1ccc(O)cc1)NC(=O)[C@H](Cc1cnc[nH]1)NC(=O)[C@H](CCCNC(=N)N)NC(C)=O)C(=O)N[C@@H](CC(N)=O)C(=O)N[C@@H](CC(C)C)C(=O)N[C@@H](CCCNC(=N)N)C(=O)N[C@H]1CC[C@H]1C(=O)N[C@@H](CCCNC(=N)N)C(=O)N[C@H]1CC[C@H]1C(=O)N[C@@H](CCCNC(=N)N)C(=O)N[C@@H](Cc1ccc(O)cc1)C(N)=O (HELM PEPTIDE1{[ac].R.H.Y.I.N.L.R.[O=C([C@@H]1CC[C@@H]1N[*:1])[*:2]].R.[O=C([C@@H]1CC[C@@H]1N[*:1])[*:2]].R.Y.[am]}$$$$V2.0)	66	> 1000	> 1000	> 1000	35	

Continued, values first:

EC50 [1] [nM]	Ki [2] [nM]	Ki [3] [nM]	Ki [4] [nM]	Ki [5] [nM]	Emax [6] [%]	Molecule
51	217	> 500	> 1000	14		CCCC[C@H](NC(=O)[C@H](CC(N)=O)NC(=O)[C@@H](NC(=O)[C@H](Cc1ccc(O)cc1)NC(=O)[C@H](CCCNC(=N)N)NC(=O)[C@H](CCCNC(=N)N)NC(C)=O)[C@@H](C)CC)C(=O)N[C@@H](CC(C)C)C(=O)N[C@H](C(=O)N[C@@H](CCCNC(=N)N)C(=O)N[C@H]1CCC[C@H]1C(=O)N[C@@H](CCCNC(=N)N)C(=O)N[C@@H](Cc1ccc(O)cc1)C(N)=O)[C@@H](C)O (HELM PEPTIDE1{[ac].R.R.Y.I.N.[Nle].L.T.R.[O=C([C@@H]1CCC[C@@H]1N[*:1])[*:2]].R.Y.[am]}$$$$V2.0)
122	> 1000	> 1000	> 1000	72		CC[C@H](C)[C@H](NC(=O)[C@H](Cc1ccc(O)cc1)NC(=O)[C@H](Cc1cnc[nH]1)NC(=O)[C@H](CCCNC(=N)N)NC(C)=O)C(=O)N[C@@H](CC(N)=O)C(=O)N[C@@H](CC(C)C)C(=O)N[C@H](C(=O)N[C@H](C(=O)N[C@@H](CCCNC(=N)N)C(=O)N[C@H]1CC[C@H]1C(=O)N[C@@H](CCCNC(=N)N)C(=O)N[C@@H](Cc1ccc(O)cc1)C(N)=O)[C@@H](C)O)[C@@H](C)CC (HELM PEPTIDE1{[ac].R.H.Y.I.N.L.I.T.R.[O=C([C@@H]1CC[C@@H]1N[*:1])[*:2]].R.Y.[am]}$$$$V2.0)
284	708	> 1000	> 1000	93		CCCC[C@H](NC(=O)[C@H](CC(N)=O)NC(=O)[C@@H](NC(=O)[C@H](Cc1ccc(O)cc1)NC(=O)[C@H](CCCNC(=N)N)NC(=O)[C@H](CCCNC(=N)N)NC(C)=O)[C@@H](C)CC)C(=O)N[C@@H](CC(C)C)C(=O)N[C@H](C(=O)N[C@@H](CCCNC(=N)N)C(=O)N[C@H]1CC[C@H]1C(=O)N[C@@H](CCCNC(=N)N)C(=O)N[C@@H](Cc1ccc(O)cc1)C(N)=O)[C@@H](C)O (HELM PEPTIDE1{[ac].R.R.Y.I.N.[Nle].L.T.R.[O=C([C@@H]1CC[C@@H]1N[*:1])[*:2]].R.Y.[am]}$$$$V2.0)
94	> 1000	> 1000	> 1000	105		CC(=O)N[C@@H](Cc1ccc(O)cc1)C(=O)N[C@@H](CCCNC(=N)N)C(=O)N[C@H]1CCC[C@H]1C(=O)N[C@@H](CCCN=C(N)N)C(=O)N[C@@H](Cc1ccc(O)cc1)C(N)=O (HELM PEPTIDE1{[ac].Y.R.[O=C([C@@H]1CCC[C@@H]1N[*:1])[*:2]].R.Y.[am]}$$$$V2.0)
